Reference: ChEMBL document CHEMBL4043204, “meso-Dihydroguaiaretic acid derivatives with antibacterial and antimycobacterial activity” (Bioorg Med Chem, 2017)
Values after ≈ are worked out from the molar mass of the structure shown. Active and inactive are the calls of the source. The rule behind the calls is not given here.

test system: Salmonella enterica; test: Antibacterial activity against Salmonella choleraesuis; assay type: functional; conditions: not given

Compound | MIC
COc1cc(C[C@H](C)[C@@H](C)Cc2ccc(O)c(OC)c2)ccc1O | 3100 µM (≈ 1020 µg/mL)

test system: not listed separately; test: Selectivity index, ratio of IC50 for cytotoxicity against African green monkey Vero cells to MIC for Mycobacterium tuberculosis H37Rv ATCC 27294; assay type: toxicity, cell-based; conditions: read-out: Selectivity Index

Compound | selectivity ratio
COc1cc(C[C@@H](C)[C@@H](C)Cc2ccc(OC(=O)c3cnccn3)c(OC)c2)ccc1O (racemic) | 0.86
COc1cc(C[C@@H](C)[C@@H](C)Cc2ccc(OCCN3CCCCC3)c(OC)c2)ccc1O (racemic) | 5.01
COc1cc(C[C@@H](C)[C@@H](C)Cc2ccc(OCCN3CCOCC3)c(OC)c2)ccc1OCCN1CCOCC1 | 2.87

test system: Staphylococcus haemolyticus; test: Antibacterial activity against linezolid-resistant Staphylococcus haemolyticus 2975 assessed as inhibition of microbial growth incubated for 24 hrs by microdilution assay; assay type: functional; conditions: Staphylococcus haemolyticus, 2975, 24 h

Compound | MIC
COc1cc(C[C@@H](C)[C@@H](C)Cc2ccc(OC(=O)c3cnccn3)c(OC)c2)ccc1O (racemic) | > 50 µg/mL
COc1cc(C[C@@H](C)[C@@H](C)Cc2ccc(OCCN3CCCCC3)c(OC)c2)ccc1O (racemic) | 50 µg/mL
COc1cc(C[C@@H](C)[C@@H](C)Cc2ccc(OCCN3CCOCC3)c(OC)c2)ccc1OCCN1CCOCC1 | > 50 µg/mL

test system: Jonesia denitrificans; test: Antibacterial activity against Listeria denitrificans; assay type: functional; conditions: not given

Compound | MIC
COc1cc(C[C@H](C)[C@@H](C)Cc2ccc(O)c(OC)c2)ccc1O | 400 µM (≈ 132 µg/mL)

test system: not listed separately; test: Selectivity index, ratio of IC50 for cytotoxicity against African green monkey Vero cells to MIC for antibacterial activity against methicillin-resistant Staphylococcus aureus (14-2095); conditions: not given

Compound | Selectivity Index
COc1cc(C[C@@H](C)[C@@H](C)Cc2ccc(OC(=O)c3cnccn3)c(OC)c2)ccc1O (racemic) | 0.87
COc1cc(C[C@@H](C)[C@@H](C)Cc2ccc(OCCN3CCCCC3)c(OC)c2)ccc1O (racemic) | 1.25
COc1cc(C[C@@H](C)[C@@H](C)Cc2ccc(OCCN3CCOCC3)c(OC)c2)ccc1OCCN1CCOCC1 | 1.43

test system: Enterococcus faecium; test: Antibacterial activity against vancomycin-resistant Enterococcus faecium (10-984) assessed as inhibition of microbial growth incubated for 24 hrs by microdilution assay; assay type: functional; conditions: not given

Compound | MIC
COc1cc(C[C@@H](C)[C@@H](C)Cc2ccc(OC(=O)c3cnccn3)c(OC)c2)ccc1O (racemic) | > 50 µg/mL
COc1cc(C[C@@H](C)[C@@H](C)Cc2ccc(OCCN3CCCCC3)c(OC)c2)ccc1O (racemic) | 50 µg/mL
COc1cc(C[C@@H](C)[C@@H](C)Cc2ccc(OCCN3CCOCC3)c(OC)c2)ccc1OCCN1CCOCC1 | > 50 µg/mL

test system: Staphylococcus aureus; test: Antibacterial activity against methicillin-resistant Staphylococcus aureus (14-2095) assessed as inhibition of microbial growth incubated for 24 hrs by microdilution assay; assay type: functional; conditions: not given

Compound | MIC
COc1cc(C[C@@H](C)[C@@H](C)Cc2ccc(OC(=O)c3cnccn3)c(OC)c2)ccc1O (racemic) | 50 µg/mL
COc1cc(C[C@@H](C)[C@@H](C)Cc2ccc(OCCN3CCCCC3)c(OC)c2)ccc1O (racemic) | 50 µg/mL
COc1cc(C[C@@H](C)[C@@H](C)Cc2ccc(OCCN3CCOCC3)c(OC)c2)ccc1OCCN1CCOCC1 | 50 µg/mL

test system: Staphylococcus epidermidis; test: Antibacterial activity against linezolid-resistant Staphylococcus epidermidis (14-583) assessed as inhibition of microbial growth incubated for 24 hrs by microdilution assay; assay type: functional; conditions: not given

Compound | MIC
COc1cc(C[C@@H](C)[C@@H](C)Cc2ccc(OC(=O)c3cnccn3)c(OC)c2)ccc1O (racemic) | > 50 µg/mL
COc1cc(C[C@@H](C)[C@@H](C)Cc2ccc(OCCN3CCCCC3)c(OC)c2)ccc1O (racemic) | 50 µg/mL
COc1cc(C[C@@H](C)[C@@H](C)Cc2ccc(OCCN3CCOCC3)c(OC)c2)ccc1OCCN1CCOCC1 | > 50 µg/mL

test system: Bacillus subtilis; test: Antibacterial activity against Bacillus subtilis; assay type: functional; conditions: not given

Compound | MIC
COc1cc(C[C@H](C)[C@@H](C)Cc2ccc(O)c(OC)c2)ccc1O | 1600 µM (≈ 529 µg/mL)

test system: Klebsiella pneumoniae; test: Antibacterial activity against extended-spectrum beta-lactamase-positive Klebsiella pneumoniae (14-2081) assessed as inhibition of microbial growth up to 50 ug/ml incubated for 24 hrs by microdilution assay; assay type: functional; conditions: not given

Compound | Activity
COc1cc(C[C@@H](C)[C@@H](C)Cc2ccc(OC(=O)c3cnccn3)c(OC)c2)ccc1O (racemic) | inactive
COc1cc(C[C@@H](C)[C@@H](C)Cc2ccc(OCCN3CCCCC3)c(OC)c2)ccc1O (racemic) | inactive
COc1cc(C[C@@H](C)[C@@H](C)Cc2ccc(OCCN3CCOCC3)c(OC)c2)ccc1OCCN1CCOCC1 | inactive

test system: Mycobacterium tuberculosis; test: Antimycobacterial activity against Mycobacterium tuberculosis H37Rv ATCC 27294 assessed as inhibition of mycobacterial growth incubated for 2 weeks by MABA method; assay type: functional; conditions: not given

Compound | -logMIC
COc1cc(C[C@@H](C)[C@@H](C)Cc2ccc(OC(=O)c3cnccn3)c(OC)c2)ccc1O (racemic) | 4.07

same assay, conditions: Mycobacterium tuberculosis, H37Rv ATCC 27294, 336 h

Compound | MIC
COc1cc(C[C@@H](C)[C@@H](C)Cc2ccc(OC(=O)c3cnccn3)c(OC)c2)ccc1O (racemic) | 50 µg/mL (≈ 115 µM)
COc1cc(C[C@@H](C)[C@@H](C)Cc2ccc(OCCN3CCCCC3)c(OC)c2)ccc1O (racemic) | 12.5 µg/mL (≈ 28.3 µM)
COc1cc(C[C@@H](C)[C@@H](C)Cc2ccc(OCCN3CCOCC3)c(OC)c2)ccc1OCCN1CCOCC1 | 25 µg/mL (≈ 44.9 µM)

test system: Klebsiella pneumoniae; test: Antibacterial activity against NDM-1 positive Klebsiella pneumoniae (14-3335) assessed as inhibition of microbial growth up to 50 ug/ml incubated for 24 hrs by microdilution assay; assay type: functional; conditions: not given

Compound | Activity
COc1cc(C[C@@H](C)[C@@H](C)Cc2ccc(OC(=O)c3cnccn3)c(OC)c2)ccc1O (racemic) | inactive
COc1cc(C[C@@H](C)[C@@H](C)Cc2ccc(OCCN3CCCCC3)c(OC)c2)ccc1O (racemic) | inactive
COc1cc(C[C@@H](C)[C@@H](C)Cc2ccc(OCCN3CCOCC3)c(OC)c2)ccc1OCCN1CCOCC1 | inactive

test system: Escherichia coli; test: Antibacterial activity against oxacillin-resistant Escherichia coli OXA-48 assessed as inhibition of microbial growth up to 50 ug/ml incubated for 24 hrs by microdilution assay; assay type: functional; conditions: not given

Compound | Activity
COc1cc(C[C@@H](C)[C@@H](C)Cc2ccc(OC(=O)c3cnccn3)c(OC)c2)ccc1O (racemic) | inactive
COc1cc(C[C@@H](C)[C@@H](C)Cc2ccc(OCCN3CCCCC3)c(OC)c2)ccc1O (racemic) | inactive
COc1cc(C[C@@H](C)[C@@H](C)Cc2ccc(OCCN3CCOCC3)c(OC)c2)ccc1OCCN1CCOCC1 | inactive

test system: Stenotrophomonas maltophilia; test: Antibacterial activity against trimethoprim-sulfamethoxazole-resistant Stenotrophomonas maltophilia assessed as inhibition of microbial growth up to 50 ug/ml incubated for 24 hrs by microdilution assay; assay type: functional; conditions: not given

Compound | Activity
COc1cc(C[C@@H](C)[C@@H](C)Cc2ccc(OC(=O)c3cnccn3)c(OC)c2)ccc1O (racemic) | inactive
COc1cc(C[C@@H](C)[C@@H](C)Cc2ccc(OCCN3CCCCC3)c(OC)c2)ccc1O (racemic) | inactive
COc1cc(C[C@@H](C)[C@@H](C)Cc2ccc(OCCN3CCOCC3)c(OC)c2)ccc1OCCN1CCOCC1 | inactive

test system: Acinetobacter baumannii; test: Antibacterial activity against carbapenem-resistant Acinetobacter baumannii (12-666) assessed as inhibition of microbial growth up to 50 ug/ml incubated for 24 hrs by microdilution assay; assay type: functional; conditions: not given

Compound | Activity
COc1cc(C[C@@H](C)[C@@H](C)Cc2ccc(OC(=O)c3cnccn3)c(OC)c2)ccc1O (racemic) | inactive
COc1cc(C[C@@H](C)[C@@H](C)Cc2ccc(OCCN3CCCCC3)c(OC)c2)ccc1O (racemic) | inactive
COc1cc(C[C@@H](C)[C@@H](C)Cc2ccc(OCCN3CCOCC3)c(OC)c2)ccc1OCCN1CCOCC1 | inactive

test system: Providencia rettgeri; test: Antibacterial activity against NDM-1 positive Providencia rettgeri assessed as inhibition of microbial growth up to 50 ug/ml incubated for 24 hrs by microdilution assay; assay type: functional; conditions: not given

Compound | Activity
COc1cc(C[C@@H](C)[C@@H](C)Cc2ccc(OC(=O)c3cnccn3)c(OC)c2)ccc1O (racemic) | inactive
COc1cc(C[C@@H](C)[C@@H](C)Cc2ccc(OCCN3CCCCC3)c(OC)c2)ccc1O (racemic) | inactive
COc1cc(C[C@@H](C)[C@@H](C)Cc2ccc(OCCN3CCOCC3)c(OC)c2)ccc1OCCN1CCOCC1 | inactive

test system: Escherichia coli; test: Antibacterial activity against extended-spectrum beta-lactamase-positive Escherichia coli (14-2081) assessed as inhibition of microbial growth up to 50 ug/ml incubated for 24 hrs by microdilution assay; assay type: functional; conditions: not given

Compound | Activity
COc1cc(C[C@@H](C)[C@@H](C)Cc2ccc(OC(=O)c3cnccn3)c(OC)c2)ccc1O (racemic) | inactive
COc1cc(C[C@@H](C)[C@@H](C)Cc2ccc(OCCN3CCCCC3)c(OC)c2)ccc1O (racemic) | inactive
COc1cc(C[C@@H](C)[C@@H](C)Cc2ccc(OCCN3CCOCC3)c(OC)c2)ccc1OCCN1CCOCC1 | inactive

test system: Vero; test: Cytotoxicity against African green monkey Vero cells assessed as reduction in cell viability incubated for 24 hrs by trypan blue staining based assay; conditions: Chlorocebus sabaeus

Compound | IC50
COc1cc(C[C@@H](C)[C@@H](C)Cc2ccc(OC(=O)c3cnccn3)c(OC)c2)ccc1O (racemic) | 43.3 µg/mL (≈ 99.3 µM)
COc1cc(C[C@@H](C)[C@@H](C)Cc2ccc(OCCN3CCCCC3)c(OC)c2)ccc1O (racemic) | 62.6 µg/mL (≈ 142 µM)
COc1cc(C[C@@H](C)[C@@H](C)Cc2ccc(OCCN3CCOCC3)c(OC)c2)ccc1OCCN1CCOCC1 | 71.6 µg/mL (≈ 129 µM)

test system: Pseudomonas aeruginosa; test: Antibacterial activity against carbapenem-resistant Pseudomonas aeruginosa (13-1391) assessed as inhibition of microbial growth up to 50 ug/ml incubated for 48 hrs by microdilution assay; assay type: functional; conditions: not given

Compound | Activity
COc1cc(C[C@@H](C)[C@@H](C)Cc2ccc(OC(=O)c3cnccn3)c(OC)c2)ccc1O (racemic) | inactive
COc1cc(C[C@@H](C)[C@@H](C)Cc2ccc(OCCN3CCCCC3)c(OC)c2)ccc1O (racemic) | inactive
COc1cc(C[C@@H](C)[C@@H](C)Cc2ccc(OCCN3CCOCC3)c(OC)c2)ccc1OCCN1CCOCC1 | inactive
